Source: US12077503B2, “Substituted cyclic amides and their use as herbicides” (FMC CORPORATION, priority 2015, dated 2024)

What was measured:
Type in all cases: in vivo
[1] = system: ducksalad (Heteranthera limosa); assay: Test C flooded paddy test; conditions: Flood, 0 is no effect, 100 is complete control
In short: (§1)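 Scores express visual response relative to untreated controls, 0 meaning no effect and 100 complete control, assessed 13 to 15 d after treatment in the greenhouse. Compound went into water flooded 3 cm above soil around 2-leaf plants.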

[2] = system: sedge, umbrella (small-flower umbrella sedge, Cyperus difformis); assay: Test C flooded paddy test; conditions: Flood, 0 is no effect, 100 is complete control
In short: as §1

[3] = system: barnyardgrass (Echinochloa crus-galli); assay: Test C flooded paddy test; conditions: Flood, 0 is no effect, 100 is complete control
In short: as §1

rice (Oryza sativa) = assay: Test C flooded paddy test; conditions: Flood, 0 is no effect, 100 is complete control
In short: as §1

[4] = system: Russian thistle (Salsola kali); assay: Test D preemergence; conditions: scale 0 to 100
Source text: (§2) Seeds of plant species selected from bluegrass (annual bluegrass, Poa annua), blackgrass (Alopecurus myosuroides), canarygrass (littleseed canarygrass, Phalaris minor), chickweed (common chickweed, Stellaria media), Galium (catchweed bedstraw, Galium aparine), bromegrass, downy (downy bromegrass, Bromus tectorum), field poppy (Papaver rhoeas), field violet (Viola arvensis), foxtail, green (green foxtail, Setaria viridis), deadnettle (henbit deadnettle, Lamium amplexicaule), ryegrass, Italian (Italian ryegrass, Lolium multiflorum), Kochia (Kochia scoparia), lambsquarters (Chenopodium album), oilseed rape (Brassica napus), pigweed (Amaranthus retroflexus), chamomile (scentless chamomile, Matricaria inodora), Russian thistle (Salsola kali), speedwell (bird's-eye speedwell, Veronica persica), barley, spring (spring barley, Hordeum vulgare), wheat, spring (spring wheat, Triticum aestivum), buckwheat, wild (wild buckwheat, Polygonum convolvulus), mustard, wild (wild mustard, Sinapis arvensis), oat, wild (wild oat, Avena fatua), radish, wild (wild radish, Raphanus raphanistrum), windgrass (Apera spica-venti), barley, winter (winter barley Hordeum vulgare), and wheat, winter (winter wheat, Triticum aestivum) were planted into a silt loam soil and treated preemergence with test chemicals formulated in a non-phytotoxic solvent mixture which included a surfactant.
(§3) Treated plants and controls were maintained in a controlled growth environment approximately 21 d after which time all species were compared to controls and visually evaluated. Plant response ratings, summarized in Table D, are based on a scale of 0 to 100 where 0 is no effect and 100 is complete control. A dash (-) response means no test result.

[5] = system: bluegrass (annual bluegrass, Poa annua); assay: Test D preemergence; conditions: scale 0 to 100
Source text: as §2, §3

[6] = system: blackgrass (Alopecurus myosuroides); assay: Test D preemergence; conditions: scale 0 to 100
Source text: as §2, §3

[7] = system: wheat, spring (spring wheat, Triticum aestivum); assay: Test D preemergence; conditions: scale 0 to 100
Source text: as §2, §3

[8] = system: deadnettle (henbit deadnettle, Lamium amplexicaule); assay: Test D preemergence; conditions: scale 0 to 100
Source text: as §2, §3

Kochia (Kochia scoparia) = assay: Test D preemergence; conditions: scale 0 to 100
Source text: as §2, §3

[9] = system: buckwheat, wild (wild buckwheat, Polygonum convolvulus); assay: Test D preemergence; conditions: scale 0 to 100
Source text: as §2, §3

[10] = system: oilseed rape (Brassica napus); assay: Test D preemergence; conditions: scale 0 to 100
Source text: as §2, §3

[11] = system: canarygrass (littleseed canarygrass, Phalaris minor); assay: Test D preemergence; conditions: scale 0 to 100
Source text: as §2, §3

[12] = system: field violet (Viola arvensis); assay: Test D preemergence; conditions: scale 0 to 100
Source text: as §2, §3

[13] = system: ryegrass, Italian (Italian ryegrass, Lolium multiflorum); assay: Test D preemergence; conditions: scale 0 to 100
Source text: as §2, §3

[14] = system: oat, wild (wild oat, Avena fatua); assay: Test D preemergence; conditions: scale 0 to 100
Source text: as §2, §3

[15] = system: speedwell (bird's-eye speedwell, Veronica persica); assay: Test D preemergence; conditions: scale 0 to 100
Source text: as §2, §3

[16] = system: lambsquarters (Chenopodium album); assay: Test D preemergence; conditions: scale 0 to 100
Source text: as §2, §3

[17] = system: mustard, wild (wild mustard, Sinapis arvensis); assay: Test D preemergence; conditions: scale 0 to 100
Source text: as §2, §3

## CN1C[C@H](c2ccc(F)c(F)c2)[C@@H](C(=O)Nc2ccccc2F)C1=O [Compound 596, (3S,4S)-4-(3,4-difluorophenyl)-N-(2-fluorophenyl)-1-methyl-2-oxo-3-pyrrolidinecarboxamide]
[1]; 31 g ai/ha
  Plant response rating (scale of 0 to 100), Ducksalad: 30
[1]; 62 g ai/ha
  Plant response rating (scale of 0 to 100), Ducksalad: 60
[1]; 125 g ai/ha
  Plant response rating (scale of 0 to 100), Ducksalad: 90
[1]; 250 g ai/ha
  Plant response rating (scale of 0 to 100), Ducksalad: 100
[2]; 31 g ai/ha
  Plant response rating (scale of 0 to 100), Sedge, Umbrella: 0
[2]; 62 g ai/ha
  Plant response rating (scale of 0 to 100), Sedge, Umbrella: 0
[2]; 125 g ai/ha
  Plant response rating (scale of 0 to 100), Sedge, Umbrella: 0
[2]; 250 g ai/ha
  Plant response rating (scale of 0 to 100), Sedge, Umbrella: 0
[3]; 31 g ai/ha
  Plant response rating (scale of 0 to 100), Barnyardgrass: 0
[3]; 62 g ai/ha
  Plant response rating (scale of 0 to 100), Barnyardgrass: 60
[3]; 125 g ai/ha
  Plant response rating (scale of 0 to 100), Barnyardgrass: 75
[3]; 250 g ai/ha
  Plant response rating (scale of 0 to 100), Barnyardgrass: 85
Rice (Oryza sativa); 31 g ai/ha
  Plant response rating (scale of 0 to 100), Rice: 0
Rice (Oryza sativa); 62 g ai/ha
  Plant response rating (scale of 0 to 100), Rice: 0
Rice (Oryza sativa); 125 g ai/ha
  Plant response rating (scale of 0 to 100), Rice: 10
Rice (Oryza sativa); 250 g ai/ha
  Plant response rating (scale of 0 to 100), Rice: 10

## CN1C[C@H](c2ccc(C(F)(F)F)cc2)[C@@H](C(=O)Nc2cccc(F)c2F)C1=O [Compound 623, (3S,4S)—N-(2,3-difluorophenyl)-1-methyl-2-oxo-4-[4-(trifluoromethyl)phenyl]-3-pyrrolidinecarboxamide]
[4]; 31 g ai/ha
  Plant response rating: Russian Thistle: 15
[4]; 62 g ai/ha
  Plant response rating: Russian Thistle: 25
[4]; 125 g ai/ha
  Plant response rating: Russian Thistle: 60
[4]; 250 g ai/ha
  Plant response rating: Russian Thistle: 70
[5]; 31 g ai/ha
  Plant response rating: Bluegrass: 25
[5]; 62 g ai/ha
  Plant response rating: Bluegrass: 65
[5]; 125 g ai/ha
  Plant response rating: Bluegrass: 70
[5]; 250 g ai/ha
  Plant response rating: Bluegrass: 85
[6]; 31 g ai/ha
  Plant response rating: Blackgrass: 30
[6]; 62 g ai/ha
  Plant response rating: Blackgrass: 40
[6]; 125 g ai/ha
  Plant response rating: Blackgrass: 45
[6]; 250 g ai/ha
  Plant response rating: Blackgrass: 70
[7]; 31 g ai/ha
  Plant response rating: Wheat, Spring: 5
[7]; 62 g ai/ha
  Plant response rating: Wheat, Spring: 10
[7]; 125 g ai/ha
  Plant response rating: Wheat, Spring: 20
[7]; 250 g ai/ha
  Plant response rating: Wheat, Spring: 45
[8]; 31 g ai/ha
  Plant response rating: Deadnettle: 25
[8]; 62 g ai/ha
  Plant response rating: Deadnettle: 65
[8]; 125 g ai/ha
  Plant response rating: Deadnettle: 75
[8]; 250 g ai/ha
  Plant response rating: Deadnettle: 75
Kochia (Kochia scoparia); 31 g ai/ha
  Plant response rating: Kochia: 25
Kochia (Kochia scoparia); 62 g ai/ha
  Plant response rating: Kochia: 75
Kochia (Kochia scoparia); 125 g ai/ha
  Plant response rating: Kochia: 95
Kochia (Kochia scoparia); 250 g ai/ha
  Plant response rating: Kochia: 95
[9]; 31 g ai/ha
  Plant response rating: Buckwheat, Wild: 0
[9]; 62 g ai/ha
  Plant response rating: Buckwheat, Wild: 10
[9]; 125 g ai/ha
  Plant response rating: Buckwheat, Wild: 15
[9]; 250 g ai/ha
  Plant response rating: Buckwheat, Wild: 45
[10]; 31 g ai/ha
  Plant response rating: Oilseed Rape: 15
[10]; 62 g ai/ha
  Plant response rating: Oilseed Rape: 20
[10]; 125 g ai/ha
  Plant response rating: Oilseed Rape: 25
[10]; 250 g ai/ha
  Plant response rating: Oilseed Rape: 75
[11]; 31 g ai/ha
  Plant response rating: Canarygrass: 25
[11]; 62 g ai/ha
  Plant response rating: Canarygrass: 70
[11]; 125 g ai/ha
  Plant response rating: Canarygrass: 85
[11]; 250 g ai/ha
  Plant response rating: Canarygrass: 85
[12]; 31 g ai/ha
  Plant response rating: Field Violet: 0
[12]; 62 g ai/ha
  Plant response rating: Field Violet: 0
[12]; 125 g ai/ha
  Plant response rating: Field Violet: 10
[12]; 250 g ai/ha
  Plant response rating: Field Violet: 15
[13]; 31 g ai/ha
  Plant response rating: Ryegrass, Italian: 0
[13]; 62 g ai/ha
  Plant response rating: Ryegrass, Italian: 15
[13]; 125 g ai/ha
  Plant response rating: Ryegrass, Italian: 40
[13]; 250 g ai/ha
  Plant response rating: Ryegrass, Italian: 65
[14]; 31 g ai/ha
  Plant response rating: Oat, Wild: 25
[14]; 62 g ai/ha
  Plant response rating: Oat, Wild: 30
[14]; 125 g ai/ha
  Plant response rating: Oat, Wild: 55
[14]; 250 g ai/ha
  Plant response rating: Oat, Wild: 60
[15]; 31 g ai/ha
  Plant response rating: Speedwell: 95
[15]; 62 g ai/ha
  Plant response rating: Speedwell: 100
[15]; 125 g ai/ha
  Plant response rating: Speedwell: 100
[15]; 250 g ai/ha
  Plant response rating: Speedwell: 90
[16]; 31 g ai/ha
  Plant response rating: Lambsquarters: 55
[16]; 62 g ai/ha
  Plant response rating: Lambsquarters: 60
[16]; 125 g ai/ha
  Plant response rating: Lambsquarters: 80
[16]; 250 g ai/ha
  Plant response rating: Lambsquarters: 95
[17]; 31 g ai/ha
  Plant response rating: Mustard, Wild: 10
[17]; 62 g ai/ha
  Plant response rating: Mustard, Wild: 15
[17]; 125 g ai/ha
  Plant response rating: Mustard, Wild: 85
[17]; 250 g ai/ha
  Plant response rating: Mustard, Wild: 85
